Measurements taken from patent US20120214862A1, “MODULATION OF FACTOR 7 EXPRESSION” (ISIS Pharmaceuticals, Inc., priority 2009, published 2012).
In the oligonucleotide strings, read from the 5' end, every base follows the letter of its sugar. An asterisk marks phosphorothioate; unmarked linkages are phosphodiester. Other units and linkages are bracketed, terminal groups are in braces. A string of capitals states the bases alone. e = 2'-O-(2-methoxyethyl) (MOE); [5mC] = 5-methylcytosine; d = 2'-deoxy (DNA)

Test system: human Factor 7 mRNA
Experiment: Antisense inhibition of human Factor 7 mRNA in HepB3 cells, lipofectin, 50 nM, real-time RT-PCR
Type: cell-based
Settings: Example 1; HepB3 cells, lipofectin, 50 nM, ~24 h, relative to untreated control cells
Description: Antisense oligonucleotides targeted to a Factor 7 nucleic acid were tested for their effects on Factor 7 mRNA in vitro. Cultured HepB3 cells at a density of 4,000 cells per well were transfected using lipofectin reagent with 50 nM antisense oligonucleotide. After a treatment period of approximately 24 hours, RNA was isolated from the cells and Factor 7 mRNA levels were measured by real-time RT-PCR, as described herein. Factor 7 mRNA levels were adjusted according to total RNA content as measured by RIBOGREEN®. Results are presented as percent inhibition of Factor 7, relative to untreated control cells.
(§1) Antisense oligonucleotides targeted to a Factor 7 nucleic acid were designed and tested for their effects on Factor 7 mRNA in vitro. Certain antisense oligonucleotides from Table 3 were also retested for their effects on Factor 7 mRNA in vitro. Cultured HepB3 cells at a density of 4,000 cells per well were transfected using lipofectin reagent with 50 nM antisense oligonucleotide. After a treatment period of approximately 24 hours, RNA was isolated from the cells and Factor 7 mRNA levels were measured by real-time RT-PCR, as described herein. Human Factor 7 primer probe set RTS 2927 was used to measure mRNA levels. Factor 7 mRNA levels were adjusted according to total RNA content as measured by RIBOGREEN®. Results are presented as percent inhibition of Factor 7, relative to untreated control.
as §1, with “tested” for “tested for their effects on Factor 7 mRNA in vitro. Certain antisense oligonucleotides from Table 3 were also retested”
These gapmers were designed by creating gapmers shifted slightly upstream and downstream (i.e. “microwalk”) of the original gapmers from Table 7. Gapmers were also created with various motifs, e.g. 5-10-5 MOE, 3-14-3 MOE, and 2-13-5 MOE. These gapmers were tested in vitro. Cultured HepB3 cells at a density of 4,000 cells per well were transfected using lipofectin reagent with 50 nM antisense oligonucleotide. After a treatment period of approximately 24 hours, RNA was isolated from the cells and Factor 7 mRNA levels were measured by real-time RT-PCR. Factor 7 mRNA levels were adjusted according to total RNA content, as measured by RIBOGREEN®. Results are presented as percent inhibition of Factor 7, relative to untreated control cells.

Substance | % Inhibition (human Factor 7 mRNA)
407640 (antisense eG*e[5mC]*eA*eT*eG*dA*dG*d[5mC]*dT*dT*dT*dT*dG*d[5mC]*dA*eG*e[5mC]*e[5mC]*eA*e[5mC]) [compound 407640] | 79%
407957 (antisense eG*eG*e[5mC]*e[5mC]*eT*dG*dG*dG*dA*dA*d[5mC]*dT*dT*dG*d[5mC]*eA*eT*eT*eT*eA) [compound 407957] | 52%
407893 (antisense eT*e[5mC]*eG*eA*eA*dG*dG*d[5mC]*dA*dG*dG*dG*dA*dG*dG*e[5mC]*eA*eG*eA*eA) [compound 407893] | 33%
407907 (antisense eA*eA*eT*eG*eA*dG*dA*dA*dG*d[5mC]*dG*d[5mC]*dA*d[5mC]*dG*eA*eA*eG*eG*e[5mC]) [compound 407907] | 35%
407951 (antisense eA*eA*e[5mC]*eA*eG*d[5mC]*dT*dT*dT*dT*dG*dT*dT*dT*dT*eT*eA*eA*eA*eA) [compound 407951] | 0%
407628 (antisense eT*eG*eA*eT*eG*dA*d[5mC]*d[5mC]*dT*dG*d[5mC]*dG*d[5mC]*d[5mC]*dA*e[5mC]*e[5mC]*e[5mC]*eG*e[5mC]) [compound 407628] | 38%
407896 (antisense e[5mC]*eG*eT*eG*eT*dG*dG*dT*d[5mC]*dA*d[5mC]*dT*dG*d[5mC]*dA*eG*eT*eA*e[5mC]*eT) [compound 407896] | 73%
407889 (antisense eT*e[5mC]*e[5mC]*eT*eG*dG*dG*dT*dT*dA*d[5mC]*dG*dA*dA*dG*eA*e[5mC]*eT*eG*e[5mC]) [compound 407889] | 54%
407644 (antisense eG*eA*eG*eG*eA*d[5mC]*dA*dG*d[5mC]*dA*d[5mC]*dA*d[5mC]*dA*dT*eG*eG*eA*eG*eT) [compound 407644] | 66%
407663 (antisense eT*eT*eG*e[5mC]*eA*dG*dG*d[5mC]*dA*dG*dG*dA*d[5mC]*dT*dG*eG*eT*eG*eG*eT) [compound 407663] | 44%
407913 (antisense eG*eA*eT*eG*e[5mC]*d[5mC]*d[5mC]*dG*dT*d[5mC]*dA*dG*dG*dT*dA*e[5mC]*e[5mC]*eA*e[5mC]*eG) [compound 407913] | 74%

Same assay, conditions: Example 4; HepB3 cells, lipofectin, 50 nM, ~24 h, relative to untreated control

Substance | % Inhibition (human Factor 7 mRNA)
422198 (antisense eG*eT*eT*dA*d[5mC]*dT*dG*dA*dG*d[5mC]*dG*d[5mC]*dG*dG*dA*dA*dG*eA*eA*eG) [compound 422198] | 50%

Same assay, conditions: Example 6 microwalk, nucleobases 15098 to 15122 of SEQ ID NO: 1; HepB3, lipofectin, 50 nM, ~24 h

Substance | % Inhibition (human Factor 7 mRNA)
422137 (antisense eA*e[5mC]*eA*eG*e[5mC]*dA*d[5mC]*dA*d[5mC]*dA*dT*dG*dG*dA*dG*eT*e[5mC]*eA*eG*e[5mC]) [compound 422137] | 45%
422134 (antisense eG*e[5mC]*eA*e[5mC]*eA*d[5mC]*dA*dT*dG*dG*dA*dG*dT*d[5mC]*dA*eG*e[5mC]*eA*eT*e[5mC]) [compound 422134] | 67%
416479 (antisense eG*eA*e[5mC]*eA*eG*d[5mC]*dA*d[5mC]*dA*d[5mC]*dA*dT*dG*dG*dA*eG*eT*e[5mC]*eA*eG) [compound 416479] | 47%

Same assay, conditions: HepB3 cells, lipofectin, 50 nM antisense oligonucleotide, approximately 24 hours, primer probe set RTS 2927, relative to untreated control

Substance | % Inhibition of human Factor 7 mRNA levels
416496 (antisense e[5mC]*eA*eA*e[5mC]*eA*d[5mC]*dT*dT*d[5mC]*dA*dA*dA*dT*dA*d[5mC]*eG*eA*eT*e[5mC]*eT) [compound 416496] | 0%
416475 (antisense e[5mC]*eT*e[5mC]*eA*eG*d[5mC]*dT*dG*dG*dG*d[5mC]*dT*dG*dT*d[5mC]*eT*eG*e[5mC]*e[5mC]*eT) [compound 416475] | 70%
416516 (antisense eG*eT*eG*eA*eG*dA*dA*dT*dA*d[5mC]*dA*dA*d[5mC]*dA*dG*eA*eT*eG*eA*eG) [compound 416516] | 24%
416439 (antisense eG*eT*e[5mC]*e[5mC]*eT*dT*dG*d[5mC]*dA*dG*dG*dA*dG*d[5mC]*d[5mC]*e[5mC]*e[5mC]*e[5mC]*eA*eT) [compound 416439] | 56%
416530 (antisense eA*eG*eG*eG*eT*dA*dG*d[5mC]*d[5mC]*dT*dT*dT*dG*d[5mC]*d[5mC]*eT*eT*eG*eG*e[5mC]) [compound 416530] | 35%
416564 (antisense eG*e[5mC]*e[5mC]*eA*e[5mC]*dT*d[5mC]*dA*d[5mC]*dA*dG*dA*dA*dA*dG*e[5mC]*eT*eG*eG*eA) [compound 416564] | 0%
416540 (antisense eG*eG*eA*e[5mC]*eT*dG*dG*dT*dG*dT*d[5mC]*dA*dT*d[5mC]*dT*eG*eG*eG*eA*e[5mC]) [compound 416540] | 38%
416479 (antisense eG*eA*e[5mC]*eA*eG*d[5mC]*dA*d[5mC]*dA*d[5mC]*dA*dT*dG*dG*dA*eG*eT*e[5mC]*eA*eG) [compound 416479] | 56%
416487 (antisense eG*e[5mC]*eA*eG*eG*dT*dG*d[5mC]*dT*d[5mC]*d[5mC]*d[5mC]*dA*dG*dG*eG*eT*e[5mC]*eT*e[5mC]) [compound 416487] | 39%
416451 (antisense eG*e[5mC]*e[5mC]*eA*eT*dG*dG*dA*d[5mC]*dA*d[5mC]*dT*d[5mC]*d[5mC]*d[5mC]*e[5mC]*eT*eT*eT*eG) [compound 416451] | 75%
416539 (antisense eG*eA*e[5mC]*eA*eG*dA*dG*d[5mC]*d[5mC]*dT*dG*dA*dG*d[5mC]*dT*eT*eG*eG*e[5mC]*eA) [compound 416539] | 53%
416494 (antisense e[5mC]*eA*eG*eA*eT*dT*dT*dA*dA*dA*d[5mC]*dT*dG*d[5mC]*dA*eG*eA*eT*eG*eA) [compound 416494] | 0%

Same assay, conditions: HepB3 cells; gapmers (5-10-5, 3-14-3, 2-13-5 MOE) targeted to nucleobases 4868 to 4899 of SEQ ID NO: 1

Substance | % Inhibition of human Factor 7 mRNA levels
422218 (antisense e[5mC]*eG*eA*dG*dT*dT*d[5mC]*dT*dG*d[5mC]*dA*dG*dG*dA*dG*d[5mC]*dG*eG*e[5mC]*e[5mC]) [compound 422218] | 70%
422143 (antisense e[5mC]*e[5mC]*eG*eA*eG*dT*dT*d[5mC]*dT*dG*d[5mC]*dA*dG*dG*dA*eG*e[5mC]*eG*eG*e[5mC]) [compound 422143] | 70%

Same assay, conditions: HepB3 cells; gapmers targeted to nucleobases 11830 to 11869 of SEQ ID NO: 1 (Table 9)

Substance | % Inhibition of human Factor 7 mRNA levels
422244 (antisense eG*eA*dG*dG*dA*dG*dA*d[5mC]*dA*dA*dT*dG*dG*dT*d[5mC]*eA*eG*eG*eG*e[5mC]) [compound 422244] | 55%
422233 (antisense eG*eG*dT*d[5mC]*dA*dG*dG*dG*d[5mC]*dT*dG*dG*dT*dT*dT*eT*eG*eG*eA*eG) [compound 422233] | 46%
422099 (antisense eA*eG*eG*eA*eG*dA*d[5mC]*dA*dA*dT*dG*dG*dT*d[5mC]*dA*eG*eG*eG*e[5mC]*eT) [compound 422099] | 48%
422102 (antisense e[5mC]*eT*eG*eA*eG*dG*dA*dG*dA*d[5mC]*dA*dA*dT*dG*dG*eT*e[5mC]*eA*eG*eG) [compound 422102] | 62%
422157 (antisense eT*eG*eG*dT*d[5mC]*dA*dG*dG*dG*d[5mC]*dT*dG*dG*dT*dT*dT*dT*eG*eG*eA) [compound 422157] | 49%

Same assay, conditions: HepB3 cells; gapmers targeted to nucleobases 13760 to 13789 of SEQ ID NO: 1 (Table 10)

Substance | % Inhibition of human Factor 7 mRNA levels
422109 (antisense e[5mC]*e[5mC]*e[5mC]*eG*e[5mC]*d[5mC]*dG*dG*d[5mC]*dT*d[5mC]*dT*dG*d[5mC]*dT*e[5mC]*eA*eT*e[5mC]*e[5mC]) [compound 422109] | 68%
422113 (antisense eG*e[5mC]*e[5mC]*eA*e[5mC]*d[5mC]*d[5mC]*dG*d[5mC]*d[5mC]*dG*dG*d[5mC]*dT*d[5mC]*eT*eG*e[5mC]*eT*e[5mC]) [compound 422113] | 68%

Same assay, conditions: HepB3 cells; gapmers targeted to nucleobases 15188 to 15211 of SEQ ID NO: 1 (Table 13)

Substance | % Inhibition of human Factor 7 mRNA levels
422226 (antisense e[5mC]*eA*dT*dG*dG*dT*dG*dA*dT*dG*d[5mC]*dT*dT*d[5mC]*dT*eG*eA*eA*eT*eT) [compound 422226] | 41%
